Where two headings read alike, the source gives them in different places.
Legend:
tadpole [1] = assay: Anesthetic potency obtained by use of a tadpole; assay type: in vivo; conditions: Table 6; potency converted to gaseous system; partial pressure ratio, methanol as 1.00
tadpole [2] = conditions: cited from earlier work
tadpole [3] = assay: Anesthetic potency obtained by use of a tadpole; conditions: in vivo
Description: In Table 3, potency is a value representing intensity of the anesthetics and is shown as values obtained by use of a tadpole.

[4] = Adsorption from aqueous phase on polystyrene film
[5] = Adsorption from aqueous phase on polyvinyl alcohol film
[6] = Adsorption from aqueous phase on uncoated crystal oscillator
[7] = Adsorption from aqueous phase on poly(methyl-L-glutamate) film
[8] = for Adsorbed amounts / Frequency Changes -ΔF: Example 9, 2C18 N^+ 2C1 /PSS^-, halothane 9.48×10^-4 M aqueous
Description: In FIG. 6, the immobilized bilayer film is cast on a silver-deposited electrode 2 of the crystal oscillator 1 [or on both sides of a silver-electrode-deposited piezoelectric crystal (9 MHz; AT-cut)] and dipped into deionized water in cell 3, bitter or odorous substances are injected thereinto as a solution thereof through an irritant-injecting device 4, frequency changes after the injection are measured by a frequency measuring means (not shown) constituting the crystal oscillator 1, and adsorbed amounts of bitter or odorous substances onto the immobilized bilayer film are determined from proportionality thereof to the frequency changes thus obtained.
The partition coefficient means a ratio of the adsorbed amount of an irritant such as the bitter or odorous substance or the like onto the immobilized bilayer film to an amount by weight of the irritant such as the bitter or odorous substance or the like in the aqueous solution of a constant volume.
Since frequency changes of 10 Hz or less are considered to be within errors in measurements, the concentration at the frequency change of 10 Hz is defined as a concentration threshold value.

[9] = Example 10; Cholesterylammonium poly(p-styrenesulfonate); halothane 9.48×10^-4 M
[10] = Example 11; CTAB^+ /PSS^-; halothane 9.48×10^-4 M
[11] = Comparative Example 6; Polyvinyl chloride, 45° C.; halothane 9.48×10^-4 M
[12] = gas phase
Description: At point B in FIG. 9, the coated crystal oscillator or crystal is removed from the cell into atmosphere with the result that the frequency reverts soon to the same as at point A in FIG. 9, at which the coated crystal oscillator or crystal is placed in the cell. […] In the determination of adsorbed amounts from frequency changes thus obtained, the adsorbed amount is represented in terms of partition coefficient obtained by dividing the adsorbed amount by the total weight of the odorous substance molecules actually existing in the gas phase in order to cancel differences in vapor pressure in the gas phase.

[13] = Table 3, tadpole, intensity of the anesthetic
[14] = Table 6, concentration ratio of aqueous solution, methanol as 1.00
[15] = Comparative Example 5, Polystyrene, 45° C., halothane 9.48×10^-4 M
[16] = Comparative Example 7, Polyvinyl alcohol, 45° C., halothane 9.48×10^-4 M
[17] = Comparative Example 8, PMLG, halothane 9.48×10^-4 M

With `CCCCO` [1-butanol] the Potency atm (tadpole [1]) was 9.41 × 10^2.

For `CCCCCCCCCCO` [1-decanol], the Potency atm (tadpole [1]) is listed as 1.11 × 10^9 and the Potency (tadpole [2]; [13]) is listed as 1.00 × 10^5.

In the case of `CCCCCCO` [1-hexanol], the Potency (tadpole [2]; [13]) is given as 1.12 × 10^3.

For `CCCCCCCCCO` [1-nonanol], the Potency atm (tadpole [3]) is listed as 2.51 × 10^8 and the Potency (tadpole [2]; [13]) is listed as 4.03 × 10^4.

For `CCCCCCCCO` [1-octanol], the Potency atm (tadpole [3]) is given as 1.21 × 10^7 and the Potency (tadpole [2]; [13]) is given as 7.93 × 10^3.

For `O=C1C[C@@H]2OCC=C3CN4CC[C@]56c7ccccc7N1[C@H]5[C@H]2[C@H]3C[C@H]46` [Strychnine, strychnine], the “frequency changes due to adsorption” value ([4]; Comparative Example 4, polystyrene-coated, regardless of temperature, FIG. 12) was “very little frequency changes”, the “Partition Coefficient” value ([4]; Table 2, coating: Polystyrene film) was 0.05 10^-3 and the “Partition Coefficient” value ([5]; Table 2, coating: Polyvinyl alcohol film) was 0.03 10^-3. For the same compound, the “frequency changes due to adsorption” value ([6]; Comparative Example 3, uncoated, regardless of temperature, FIG. 12) was “little or no frequency changes”, the “Partition Coefficient” value ([6]; Table 2, coating: None) was 0.03 10^-3 and the “Partition Coefficient” value ([7]; Table 2, coating: Polymethyl-L-glutamate film) was 0.02 10^-3.

In the case of `CC(C)=O` [acetone], the Potency atm (tadpole [1]) is listed as 1.76, the Potency (tadpole [2]; [13]) is listed as 3.47 and the Potency (tadpole [2]; [14]) is listed as 3.47.

In the case of `OCc1ccccc1` [benzylalcohol], the Potency atm (tadpole [3]) is given as 6.25 × 10^5 and the Potency (tadpole [2]; [13]) is given as 5.01 × 10^2.

In the case of `ClC(Cl)Cl` [chloroform], the Potency atm (tadpole [1]) is given as 4.62 × 10^2 and the Potency (tadpole [2]; [13]) is given as 7.62 × 10^2.

With `CCOCC` [diethyl ether] the Potency atm (tadpole [1]) was 6.43.

For `CCO` [ethanol], the Potency atm (tadpole [1]) is listed as 5.19, the Potency (tadpole [2]; [13]) is listed as 2.43 and the Potency (tadpole [2]; [14]) is listed as 2.43.

With `FC(F)(F)C(Cl)Br` (centres unmarked) [halothane] the Potency atm (tadpole [3]) was 1.72 × 10^3, the Adsorbed amounts ([8]; 20° C.) was 101 ng and the “Frequency Changes -ΔF” value ([8]; 20° C.) was 96 Hz. For the same compound, the Adsorbed amounts ([8]; 45° C.) was 318 ng, the “Frequency Changes -ΔF” value ([8]; 45° C.) was 303 Hz and the “adsorbed amount versus film thickness” value ([8]; Example 14, aqueous, 45° C., halothane 3.00×10^-4 M, FIG. 19) was “increased with increased film thickness”. The Adsorbed amounts [9] was 82 ng, the “Frequency Changes -ΔF” value [9] was 78 Hz and the Adsorbed amounts [10] was 249 ng. For the same compound, the “Frequency Changes -ΔF” value [10] was 237 Hz, the Adsorbed amounts [11] was 74 ng and the “Frequency Changes -ΔF” value [11] was 70 Hz. The “adsorption amount versus film thickness” value ([12]; Example 20, 25° C., 2 μl halothane, FIG. 23) was “linearly increased”, the Potency (tadpole [2]; [13]) was 4.47 × 10^3 and the Adsorbed amounts [4, 15] was 74 ng. The “Frequency Changes -ΔF” value [4, 15] was 70 Hz, the Adsorbed amounts [5, 16] was 53 ng and the “Frequency Changes -ΔF” value [5, 16] was 50 Hz. For the same compound, the Adsorbed amounts [7, 17] was 176 ng and the “Frequency Changes -ΔF” value [7, 17] was 168 Hz.

For `CCCCCC` [hexane], the Potency atm (tadpole [1]) is listed as 5.21 × 10^4 and the Potency (tadpole [2]; [13]) is listed as 6.75 × 10^4.

For `CO` [methanol], the Potency (tadpole [2]; [13]) is given as 1.00 and the Potency (tadpole [2]; [14]) is given as 1.00.

In the case of `COC(F)(F)C(Cl)Cl` [methoxyflurane], the Potency atm (tadpole [3]) is listed as 1.82 × 10^4 and the Potency (tadpole [2]; [13]) is listed as 4.86 × 10^3.

With `CC1OC(C)OC(C)O1` (centres unmarked) [paraldehyde] the Potency atm (tadpole [3]) was 8.20 × 10^2.

For `CCCCC` [pentane], the Potency atm (tadpole [3]) is given as 3.34 × 10^3 and the Potency (tadpole [2]; [13]) is given as 1.51 × 10^4.

In the case of `CC(=O)/C=C/C1=C(C)CCCC1(C)C` [β-ionone], the reversibility of adsorption ([8]; 45° C., strychnine 58.3 μM, β-ionone 125 μM, FIG. 7, FIG. 8) was “reversible” and the “frequency change in saturated vapor” value ([12]; Example 6, FIG. 9) was “the frequency rapidly decreases and then becomes constant soon”.
